PubChem BioAssay (NCI)
“And” between values parts separate entries of the source, which are not always exact repeats. Equal entries are not always repeated.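 Interpolation was linear, between the two tested concentrations surrounding the appropriate level; five concentrations were tested over 48 hours in 96-well plates. GI50 = concentration required for 50% inhibition of growth. TGI: concentration producing complete growth inhibition.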

Experiments:
Assay in all cases: NCI-60 cell line screen, 48 h
HCC-2998 colon = test system: HCC-2998 colon
SF-295 CNS = test system: SF-295 CNS
HCT-15 colon = test system: HCT-15 colon
NCI-H522 lung = test system: NCI-H522 lung
SW-620 colon = test system: SW-620 colon
A549 NSCLC = test system: A549 NSCLC
NCI-H226 lung = test system: NCI-H226 lung
UO-31 renal = test system: UO-31 renal
SNB-19 CNS = test system: SNB-19 CNS
NCI/ADR-RES ovarian = test system: NCI/ADR-RES ovarian

SMILES	GI50 (HCC-2998 colon)	TGI (HCC-2998 colon)	GI50 (SF-295 CNS)	TGI (SF-295 CNS)	GI50 (HCT-15 colon)	TGI (HCT-15 colon)	GI50 (NCI-H522 lung)	TGI (NCI-H522 lung)	GI50 (SW-620 colon)	TGI (SW-620 colon)	GI50 (A549 NSCLC)	TGI (A549 NSCLC)	GI50 (NCI-H226 lung)	TGI (NCI-H226 lung)	GI50 (UO-31 renal)	TGI (UO-31 renal)	GI50 (SNB-19 CNS)	TGI (SNB-19 CNS)	GI50 (NCI/ADR-RES ovarian)	TGI (NCI/ADR-RES ovarian)
O=C1Nc2c(C(F)(F)F)cccc2[C@]1(c1ccc(O)cc1)c1ccc(OC(F)(F)F)cc1	14 µM	29.8 µM	10 µM	22.1 µM	9.43 µM	23.3 µM	12.9 µM	28.5 µM	14.5 µM	32.2 µM	5.26 µM	20 µM	11.6 µM	32.4 µM	6.45 µM	20 µM	14.1 µM	27.2 µM	8.78 µM	25.8 µM
Oc1ccc(CN2CCC(N3CCCCC3)CC2)c2cccnc12	64.2 µM	> 100 µM	68.3 µM	> 100 µM	5.83 µM	> 100 µM	3.43 µM	43.9 µM	17 µM	> 100 µM	6.68 µM	> 100 µM	29 µM	82.2 µM	6.2 µM	34.6 µM	21.6 µM	> 100 µM	24.2 µM	> 100 µM
CCOc1cc2c(Cl)ncnc2c(OCC)c1OCC	1.88 µM	3.59 µM	9.25 µM	29.2 µM	2.56 µM	9.07 µM	9.67 µM	23.5 µM	2.88 µM	9.24 µM	24.6 µM	> 79.8 µM	12.7 µM	33.3 µM	8.45 µM	23.6 µM	8.8 µM	21.4 µM	25.6 µM	> 64.3 µM
O=C(/C(Br)=C/c1ccccc1)c1ccccc1	6.8 µM	19 µM	11.8 µM	25.9 µM	1.02 µM	2.47 µM	0.396 µM	2.23 µM	1.63 µM	3.9 µM	14.2 µM	28.5 µM	3.5 µM	14.1 µM	1.36 µM	3.35 µM	13.1 µM	26.1 µM	2.24 µM	6.48 µM
NC(=O)c1ccc(I)c(N)c1	> 100 µM	> 100 µM	> 100 µM	> 100 µM	> 100 µM	> 100 µM	> 100 µM	> 100 µM	> 100 µM	> 100 µM	> 100 µM	> 100 µM	> 100 µM	> 100 µM	> 100 µM	> 100 µM	> 100 µM	> 100 µM	> 100 µM	> 100 µM
Cn1c2ccccc2c2c(-c3ccccc3)[n+]3ccncc3nc21	> 100 µM	> 100 µM	> 100 µM	> 100 µM	> 100 µM	> 100 µM	48 µM	> 100 µM	> 100 µM	> 100 µM	> 100 µM	> 100 µM	> 100 µM	> 100 µM	> 100 µM	> 100 µM	51.8 µM	> 100 µM	> 100 µM	> 100 µM
CC[CH2][Sn]([CH2]CC)([O]C(=O)c1cccnc1SC)[O][Sn]([CH2]CC)([CH2]CC)[O]C(=O)c1cccnc1SC	0.642 µM	1.92 µM	1.04 µM	3.04 µM	0.246 µM	0.998 µM	< 0.0196 µM	0.0784 µM	0.216 µM	0.503 µM	3.2 µM	6.24 µM	0.614 µM	1.79 µM	0.844 µM	2.14 µM	0.83 µM	2.22 µM	1.49 µM	3.24 µM
CC(C)c1nc(CN(C)C(=O)N[C@H](C(=O)N[C@@H](Cc2ccccc2)C[C@H](O)[C@H](Cc2ccccc2)NC(=O)OCc2cncs2)C(C)C)cs1	22.2 µM	45.2 µM	22.1 µM	50.5 µM	24.5 µM	> 100 µM	28.7 µM	> 81 µM	34.9 µM	> 100 µM	23 µM	65.5 µM	18.8 µM	39.4 µM	24.5 µM	> 83.8 µM	26.4 µM	> 89 µM	37.9 µM	> 100 µM
N#Cc1ccc(O)c(C2=NCC(c3cccc(Oc4ccccc4)c3)O2)c1 (stereo not given)	0.881 µM	57.8 µM	0.413 µM	23.5 µM	0.363 µM	36.1 µM	1.17 µM	12.3 µM	0.508 µM	22.8 µM	0.876 µM	11.8 µM	1.7 µM	11.1 µM	0.449 µM	2.75 µM	1.39 µM	> 100 µM	0.29 µM	6.51 µM
Oc1c(CN2CCC(N3CCCCC3)CC2)cc(Cc2cc(CN3CCC(N4CCCCC4)CC3)c(O)c3ncccc23)c2cccnc12	1.19 µM	6.15 µM	1.64 µM	3.58 µM	0.797 µM	14.6 µM	1.39 µM	3.63 µM	0.726 µM	15.1 µM	1.61 µM	5.75 µM	1.49 µM	4.53 µM	1 µM	4.22 µM	2.65 µM	22.5 µM	3.12 µM	17.9 µM
CC[C@@H]1CN(C)[C@H]2Cc3c([nH]c4ccccc34)C(=O)C[C@H]1C2C(=O)OC (stereo not given in full)		> 100 µM		> 100 µM		> 100 µM		> 100 µM		> 100 µM		> 100 µM		> 100 µM		> 100 µM		> 100 µM		> 100 µM
CCN(CC)CCOc1ccc(/C(=C(\Cl)c2ccccc2)c2ccccc2)cc1	2 µM and 2.4 µM	7.35 µM and 6.41 µM	1.06 µM and 1.87 µM	2.54 µM and 4.02 µM	1.47 µM and 1.72 µM	5.01 µM and 7.38 µM	3.09 µM and 1.47 µM	10 µM and 3.02 µM	1.11 µM and 1.74 µM	2.56 µM and 3.73 µM	2.92 µM and 4.32 µM	9.57 µM and 15.3 µM	5.46 µM and 4.01 µM	12.9 µM and 16.3 µM	0.856 µM and 1.49 µM	2.62 µM and 5.9 µM	5.41 µM and 2.25 µM	11.9 µM and 5.41 µM	5.56 µM and 3.34 µM	12.2 µM and 14.4 µM
C=C1C(=O)O[C@H]2[C@H]1CC/C(COC(=O)c1ccc3ccccc3c1)=C\CC[C@@]1(C)O[C@@H]21	1.75 µM	3.36 µM	1.54 µM	3.06 µM	0.394 µM	1.66 µM	0.739 µM	2.2 µM	0.356 µM	1.39 µM	1.59 µM	3.43 µM	1.42 µM	3.21 µM	0.859 µM	2.11 µM	1.36 µM	2.75 µM	2.32 µM	10.2 µM
CCN(CC)c1ccc(/C=C/c2ccc3cc(C)ccc3[n+]2CC)cc1	0.197 µM	15.3 µM	0.0658 µM	0.864 µM	1.32 µM	12.9 µM	0.0835 µM	2.55 µM	0.229 µM	15.6 µM	0.119 µM	14.6 µM	0.152 µM	9.85 µM	0.691 µM	7.45 µM	0.0621 µM	13.4 µM	5.69 µM	47.4 µM
COc1ccc(-c2cc(=O)c3c(OC)c(OC)c(OC)cc3o2)cc1		49 µM		96.9 µM		> 100 µM		85.3 µM		> 100 µM		85.9 µM		> 100 µM		87.7 µM		> 100 µM		> 100 µM
COC(=O)[C@]12CC[C@@H](C)[C@H](C)[C@@H]1C1=CC[C@@H]3[C@@]4(C)C/C(=N\O)[C@H](O)[C@@]5(C)COC(=C45)C[C@@]3(C)[C@]1(C)CC2	11.5 µM	24.9 µM	4.82 µM	17.1 µM	5.47 µM	17.7 µM	14.1 µM	30.1 µM	8.42 µM	21.9 µM	10.4 µM	24.4 µM	14.8 µM	33.5 µM	12.3 µM	29.2 µM	10.5 µM	31.5 µM	2.61 µM	7.88 µM
COc1ccc(NC2=CC(=O)C(=O)c3ccccc32)nn1		21.2 µM		2.15 µM		2.51 µM		2.16 µM		3.4 µM		31.2 µM		5.5 µM		11.8 µM		18.1 µM		3.65 µM
C[C@@H]1OC(O)[C@@H](F)[C@H](O)[C@@H]1O (stereo not given in full)	> 100 µM	> 100 µM	> 100 µM	> 100 µM	> 100 µM	> 100 µM	> 100 µM	> 100 µM	> 100 µM	> 100 µM	> 100 µM	> 100 µM	> 100 µM	> 100 µM	> 100 µM	> 100 µM	> 100 µM	> 100 µM	> 100 µM	> 100 µM
Oc1ccc(NCc2nc3ccccc3[nH]2)cc1	74.2 µM	> 100 µM	24.4 µM	97.2 µM	> 100 µM	> 100 µM	27.7 µM	> 100 µM	> 100 µM	> 100 µM	51.6 µM	> 100 µM	> 100 µM	> 100 µM	> 100 µM	> 100 µM	33.6 µM	> 100 µM	> 100 µM	> 100 µM
C[C@]12CC[C@H]3[C@@H](CC=C4C[C@@H](O)CC[C@@]43C)[C@@H]1CC[C@@H]2N(CCO)CCO		94.9 µM		> 100 µM		> 100 µM		> 100 µM		> 100 µM		> 100 µM		> 100 µM		> 100 µM		> 100 µM		> 100 µM
CC(C)(C)OC(=O)N1CCc2c(sc3ncnc(N/N=C/c4cccc5ccccc45)c23)C1	12.9 µM	> 100 µM	3.72 µM	66.8 µM	3.86 µM	> 100 µM	2.26 µM	7.21 µM	3.87 µM	> 100 µM	3.64 µM	> 100 µM	5.29 µM	34.7 µM	2.68 µM	14.9 µM	5.05 µM	> 100 µM	3.74 µM	43.8 µM
OCc1c[nH]c2ccccc12	20.2 µM	41 µM	19.4 µM	40.9 µM	20.3 µM	55.3 µM	16.7 µM	37.1 µM	17.9 µM	36.8 µM	20.8 µM	57.9 µM	17.4 µM	48.1 µM	6.29 µM	50.9 µM	33 µM	> 100 µM	23.2 µM	71.4 µM
N#CSc1c[nH]c2cccc(/C=C/C(=O)/C=C(/C=C/c3cccc4[nH]cc(SC#N)c34)OB(F)F)c12	2.59 µM	6.89 µM	2.68 µM	9.16 µM	0.315 µM	1.49 µM	0.207 µM	0.501 µM	0.351 µM	1.33 µM	0.991 µM	10.2 µM	2.21 µM	5.9 µM	0.391 µM	1.55 µM	2.33 µM	14.7 µM	4.3 µM	> 100 µM
O/N=C/C1c2ccccc2-c2ccccc21		31.9 µM		53.4 µM		40.2 µM		33.4 µM		40.7 µM		51.5 µM		33.6 µM		32.4 µM		38.6 µM		33.8 µM
COc1cc2c(c(O)c1Br)C(=O)c1c(O)cc(C[C@H](C)O)cc1[C@H]2[C@H]1c2cc(C[C@H](C)O)cc(O)c2C(=O)c2c1cc(OC)c(Br)c2O	8.39 µM and 14.8 µM	67.5 µM and > 100 µM	8 µM and 10.2 µM	21.5 µM and 22.4 µM	10.4 µM and 17.4 µM	67.5 µM and > 100 µM	8.02 µM and 25.7 µM	18.9 µM and 78.7 µM	5.36 µM and 19.9 µM	67.5 µM and > 100 µM	10.1 µM and 20.9 µM	32.9 µM and > 100 µM	6.33 µM and 10.6 µM	30.9 µM and 47.6 µM	7.52 µM and 15.4 µM	15.9 µM and 29.8 µM	5.07 µM and 10.4 µM	67.5 µM and 80.1 µM	17.5 µM and 28.5 µM	59.9 µM and > 100 µM
C=CC(=O)N1CC2(CCN(c3nc(OC4CCN(CCCOC)CC4)nc4c(OCC(F)(F)F)c(-c5c(C)ccc6[nH]ncc56)c(C5CC5)cc34)CC2)C1	2 µM	4.64 µM	2.08 µM	5.65 µM	1.66 µM	3.21 µM	1.78 µM	3.57 µM	1.82 µM	3.59 µM	3.45 µM	17.6 µM	3.66 µM	16.5 µM	1.7 µM	3.13 µM	6.89 µM	20.1 µM	14.8 µM	36.6 µM
